# Assay results as given in patent US12486276B2, “5-(2,5-difluorophenyl)pyrrolidin-1-yl)-3-(1H-pyrazol-1-yl)pyrazolo[1,5-a]pyrimidine derivatives and related compounds as Trk kinase inhibitors for treating cancer” (Pyramid Biosciences, Inc., priority 2017, dated 2025).
# pIC50: −log10 of the molar value.
# Molecular target: T1, TrkA kinase domain (Homo sapiens, UniProt P04629)
# T1 construct: TrkA kinase domain was supplied by SignalChem; purchased SignalChem
# Test: TrkA Kinase Assay (Trk kinase biochemical assay)
# Details: 33 pM TrkA, 100 nM peptide substrate, 10 µM ATP; 15 minute preincubation; read-out: TrkA WT IC50
# Method: Example 33: TrkA Kinase Assay Protocol
# TrkA kinase domain was supplied by SignalChem. Ulight PolyGT peptide substrate and Europium labeled W1024 antiphosphotyrosine antibody were supplied by Perkin Elmer. Assay buffer contained 50 mM HEPES, 10 mM MgCb, 1 mM EGTA, 2 mM DTT, 0.1 mg/mL BSA, and 0.005% w/v tween 20, pH 7.5. Enzyme dilution buffer was made by supplementing assay buffer with 25% w/v glycerol. Antibody dilution buffer contained 20 mM Tris, 137 mM NaCl, and 0.05% w/v tween 20, pH 8.0. Buffers were prepared at room temperature. Enzyme solutions were made on ice, while other solutions were made at room temperature and all subsequent assay steps were performed at room temperature. The TrkA stock solution (0.1 mg/mL) was diluted 156× in enzyme dilution buffer and then 100× in assay buffer. Five pL/well of enzyme solution was added to the assay plate (Greiner black 384-well nonbinding plate), with buffer containing no enzyme added to negative control wells. Test compounds were serially diluted in DMSO at 300× final assay concentration. One μL of each test compound dilution was mixed with 99 pL assay buffer plus ATP (30 μM) and five pL of each test compound-ATP solution was added to w¾13s containing enzyme. Positive control wells contained enzyme and substrates but no test compounds. After a 15 minute enzyme-test compound preincubation, five pL of substrate diluted in assay buffer was added to all wells. Final assay concentrations were 33 pM TrkA, 100 nM peptide substrate, and […]. After a five minute reaction, five pL of 80 mM EDTA was added, followed five minutes later by five pL two nM antibody solution. The ratio of fluorescence at 665 nm vs. 615 nM in each well was determined using a Tecan Infinite Pro F200 plate reader. For each test compound well, percent inhibition w % s calculated (% inliib. =100-100*(test value-neg. control)/(pos. control-neg. control)). Percent inhibition values were fit to a four parameter logistic to determine ICso values for each test compound.
# T1 sequence (P04629 510-781 limits assumed): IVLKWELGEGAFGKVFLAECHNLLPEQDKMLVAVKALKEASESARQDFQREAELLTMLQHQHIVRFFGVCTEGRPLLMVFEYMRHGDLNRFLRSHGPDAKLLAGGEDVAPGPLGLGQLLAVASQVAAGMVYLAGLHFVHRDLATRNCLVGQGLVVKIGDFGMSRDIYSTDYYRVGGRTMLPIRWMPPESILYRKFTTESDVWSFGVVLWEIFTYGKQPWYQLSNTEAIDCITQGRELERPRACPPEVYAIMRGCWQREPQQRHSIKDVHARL
row,Structure (SMILES),pIC50
1,"Cc1cnn(-c2cnn3ccc(N(C)[C@H](C)c4ccccc4)nc23)c1 [I-195, (R)—N-methyl-3-(4-methyl-1H-pyrazol-1-yl)-N-(1-phenylethyl)pyrazolo[1,5-a]pyrimidin-5-amine]",> 8.00
2,Cc1cnn(-c2cnn3ccc(N[C@H](C)c4ccccc4)nc23)c1 [I-196],> 8.00
3,Fc1ccc(F)c([C@H]2CCCN2c2ccn3ncc(-n4cc(-c5ccnnc5)cn4)c3n2)c1 [I-199],> 8.00
4,COc1ccc(-c2cnn(-c3cnn4ccc(N5CCC[C@@H]5c5cc(F)ccc5F)nc34)c2)cn1 [I-200],> 8.00
5,COc1ccncc1-c1cnn(-c2cnn3ccc(N4CCC[C@@H]4c4cc(F)ccc4F)nc23)c1 [I-201],> 8.00
6,COc1ncccc1-c1cnn(-c2cnn3ccc(N4CCC[C@@H]4c4cc(F)ccc4F)nc23)c1 [I-202],> 8.00
7,NC(=O)c1cnccc1-c1cnn(-c2cnn3ccc(N4CCC[C@@H]4c4cc(F)ccc4F)nc23)c1 [I-203],> 8.00
8,COc1cnccc1-c1cnn(-c2cnn3ccc(N4CCC[C@@H]4c4cc(F)ccc4F)nc23)c1 [I-204],> 8.00
9,Fc1ccc(F)c([C@H]2CCCN2c2ccn3ncc(-n4cc(-c5ccncc5F)cn4)c3n2)c1 [I-205],> 8.00
10,OC1CCN(c2cnn(-c3cnn4ccc(N5CCC[C@@H]5c5cc(F)ccc5F)nc34)c2)C1 (stereo partly shown) [I-208],> 8.00
11,Fc1ccc(F)c([C@H]2CCCN2c2ccn3ncc(-n4cc(C5CCOC5)cn4)c3n2)c1 (stereo partly shown) [I-210],> 8.00
12,COc1cncc(-c2cnn(-c3cnn4ccc(N5CCC[C@@H]5c5ncccc5F)nc34)c2)c1 [I-211],> 8.00
13,Fc1ccc(F)c([C@H]2CCCN2c2ccn3ncc(-n4cc(C5=COCC5)cn4)c3n2)c1 [I-212],> 8.00
14,"Fc1ccc(F)c([C@H]2CCCN2c2ccn3ncc(-n4cc(-c5cncc(OC6COC6)c5)cn4)c3n2)c1 [I-214, (R)-5-(2-(2,5-difluorophenyl)pyrrolidin-1-yl)-3-(4-(5-(oxetan-3-yloxy)pyridin-3-yl)-1H-pyrazol-1-yl)pyrazolo[1,5-a]pyrimidine]",> 8.00
15,"Fc1ccc(F)c([C@H]2CCCN2c2ccn3ncc(-n4cc(-c5ccc(F)nc5)cn4)c3n2)c1 [I-219, (R)-5-(2-(2,5-difluorophenyl)pyrrolidin-1-yl)-3-(4-(6-fluoropyridin-3-yl)-1H-pyrazol-1-yl)pyrazolo[1,5-a]pyrimidine]",> 8.00
16,"COc1ccc(-c2cnn(-c3cnn4ccc(N[C@H](C)c5cc(F)ccc5F)nc34)c2)cn1 [I-220, (R)—N-(1-(2,5-difluor®phenyl)ethyl)-3-(4-(6-methoxypyridin-3-yl)-1H-pyrazoI-1-yl)pyrazolo[1,5-a]pyrimidin-5-amine]",> 8.00
17,"Fc1ccc(F)c([C@H]2CCCN2c2ccn3ncc(-n4cc(-c5ccc(OC6COC6)nc5)cn4)c3n2)c1 [I-223, (R)-5-(2-(2,5-difluorophenyl)pyrrolidn-1-yl)-3-(4-(6-(oxetan-3-yloxy)pyridin-3-yl)-H-pyrazol-1-yl)pyrazolo[1,5-a]pyrimidine]",> 8.00

# Results, then the compound that gave them:
row,pIC50,Structure (SMILES)
1,> 8.00,CN(C)C(=O)Nc1cnn(-c2cnn3ccc(N4CCC[C@@H]4c4cc(F)ccc4F)nc23)c1 [I-197]
2,> 8.00,"CN(C)S(=O)(=O)Nc1cnn(-c2cnn3ccc(N4CCC[C@@H]4c4cc(F)ccc4F)nc23)c1 [I-198, (R)—N-(1-(5-(2-(2,5-difluorophenyl)pyrrolidin-1-yl)pyrazolo[1,5-a]pyrimidin-3-yl)-1H-pyrazol-4-yl)-1,1-dimethylsulfonylurea]"
3,> 8.00,"COc1cncc(-c2cnn(-c3cnn4ccc(N5CCC[C@@H]5c5nc(F)ccc5F)nc34)c2)c1 [I-206, (R)-5-(2-(3,6-difluoropyridin-2-yl)pyrrolidin-t-yl)-3-(4-(5-methoxypyridin-3-yi)-1H-pyrazol-1-yl)pyrazolo[1,5-a]pyrimidine]"
4,> 8.00,Fc1ccc(F)c([C@H]2CCCN2c2ccn3ncc(-n4cc(-c5ccncc5)cn4)c3n2)n1 [I-207]
5,> 8.00,OC1CCN(c2cnn(-c3cnn4ccc(N5CCC[C@@H]5c5ncccc5F)nc34)c2)C1 (stereo partly shown) [I-209]
6,> 8.00,Fc1cccnc1[C@H]1CCCN1c1ccn2ncc(-n3cc(-c4ccncc4)cn3)c2n1 [I-213]
7,> 8.00,Fc1cccnc1[C@H]1CCCN1c1ccn2ncc(-n3cc(C(F)(F)F)cn3)c2n1 [I-215]
8,> 8.00,"COc1ccc(F)c([C@H]2CCCN2c2ccn3ncc(-n4cc(C)cn4)c3n2)n1 [I-216, (R)-5-(2-(3-fluoro-6-methoxypyridin-2-yl)pyrrolidin-1-yl)-3-(4-methyl-1H-pyrazoI-1-yl)pyrazolo[1,5-a]pyrimidine]"
9,> 8.00,"Cc1cnn(-c2cnn3ccc(N4CCC[C@@H]4c4nc(N(C)C)ccc4F)nc23)c1 [I-217, (R)-5-fluoro-N,N-dimethyl-6-(1-(3-(4-methyl-1H-pyrazol-1-yl)pyrazolo[1,5-a]pyrimidin-5-yl)pyrrolidin-2-yl)pyridin-2-amine]"
10,> 8.00,CNc1ccc(F)c([C@H]2CCCN2c2ccn3ncc(-n4cc(C)cn4)c3n2)n1 [I-218]
11,> 8.00,"COc1ccc(-c2cnn(-c3cnn4ccc(N5CCC[C@@H]5c5nc(F)ccc5F)nc34)c2)cn1 [I-221, (R)-5-(2-(3,6-difluoropyridin-2-yl)pyrrolidin-1-yl)-3-(4-(6-methoxypyridin-3-yl)-1H-pyrazol-1-yl)pyrazolo[1,5-a]pyrimidine]"
12,> 8.00,COc1ccc(-c2cnn(-c3cnn4ccc(N5CCC[C@@H]5c5ncccc5F)nc34)c2)cn1 [I-222]
13,> 8.00,"CC(=O)c1cnn(-c2cnn3ccc(N4CCC[C@@H]4c4cc(F)ccc4F)nc23)c1 [I-225, (R)-1-(1-(5-(2-(2,5-difluorophenyl)pyrrolidin-1-yl)pyrazolo[1,5-a]pyrimidin-3-yl)-1H-pyrazol-4-yl)ethanone]"
14,> 8.00,COCc1cnn(-c2cnn3ccc(N4CCC[C@@H]4c4cc(F)ccc4F)nc23)c1 [I-226]
